Measurements published in ChEMBL document CHEMBL5729588, “Spiro-oxazolones” (2023).

The molecules below were run against Vasopressin V1a receptor (Homo sapiens, UniProt P37288) (assay: Pharmacological Assay: The human V1a receptor was cloned by RT-PCR from total human liver RNA. The coding sequence was subcloned in an expression vector after sequencing to confirm the identity of the amplified sequence. […] Cell membranes were prepared from HEK293 cells transiently transfected with the expression vector and grown in 20 liter fermenters with the following protocol. 50 g of cells are re-suspended in 30 ml freshly prepared ice cold Lysis buffer ([…] HEPES. 1 mM EDTA, 10 mM MgCl adjusted to pH=7.4+complete cocktail of protease inhibitor (Roche Diagnostics)). Homogenized with Polytron for 1 min and sonicated on ice for 2×2 minutes at 80% intensity (Vibracell sonicator). The preparation is centrifuged 20 min at 500 g at 4° C., the pellet is discarded and the supernatant centrifuged 1 hour at 43'000 g at 4° C. (19'000 rpm). The pellet is re-suspended in 12.5 ml Lysis buffer+12.5 ml Sucrose 20% and homogenized using a Polytron for 1-2 min. The protein concentration is determined by the Bradford method and aliquots are stored at −80° C. until use. For binding studies 60 mg Yttrium silicate SPA beads (Amersham) are mixed with an aliquot of membrane in binding buffer (50 mM Tris, 120 mM NaCl, 5 mM KCl, 2 mM CaCl, 10 mM MgCl) for 15 minutes with mixing. 50 μl of bead/membrane mixture is then added to each well of a 96 well plate, followed by […] of 4 nM 3H-Vasopressin (American Radiolabeled Chemicals). For total binding measurement 100 μl of binding buffer are added to the respective wells, for non-specific binding 100 μl of 8.4 mM cold vasopressin and for compound testing 100 μl of a serial dilution of each compound in 2% DMSO. The plate is incubated 1 h at room temperature, centrifuged 1 min at 1000 g and counted on a Packard Top-Count. Non-specific binding counts are subtracted from each well and data is normalized to the maximum specific binding set at 100%. To calculate an IC 50 the curve is fitted using a non-linear regression model (XLfit) and the K, is calculated using the Cheng-Prussoff equation.).
Vasopressin V1a receptor, sequence (P37288 whole entry): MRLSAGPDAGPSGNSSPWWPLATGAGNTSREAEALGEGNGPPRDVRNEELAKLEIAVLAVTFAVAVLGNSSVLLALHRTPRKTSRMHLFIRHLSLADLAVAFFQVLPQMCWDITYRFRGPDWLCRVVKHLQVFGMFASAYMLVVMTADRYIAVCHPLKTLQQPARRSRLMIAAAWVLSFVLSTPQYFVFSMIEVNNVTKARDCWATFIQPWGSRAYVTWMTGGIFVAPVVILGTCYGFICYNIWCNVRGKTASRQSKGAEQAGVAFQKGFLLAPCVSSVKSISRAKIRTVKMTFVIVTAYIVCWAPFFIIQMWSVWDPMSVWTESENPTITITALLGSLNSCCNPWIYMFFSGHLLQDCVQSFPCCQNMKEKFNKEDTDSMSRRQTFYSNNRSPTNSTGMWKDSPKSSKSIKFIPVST
A Ki of 1 nM was found for `O=C1N=C(N2CCC3(CC2)OCc2ccccc23)OC12CCc1ccccc1C2` (centres undefined) in this work. A Ki of 10 nM was found for `Cc1cc2c(cn1)COC21CCN(C2=NC(=O)C3(Cc4ccccc4C3)O2)CC1` in this work. A Ki of 50.1 nM was found for `O=C1N=C(N2CCC3(CC2)OCc2ccccc23)OC12CCCc1ccccc12` (centres undefined) in this work. A Ki of 1 nM was found for `O=C1N=C(N2CCC3(CC2)OCc2ccccc23)OC12Cc1ccc(Cl)cc1C2` (centres undefined) in this work. A Ki of 15.8 nM was found for `Cc1cc2c(cn1)C1(CCN(C3=NC(=O)C4(Cc5ccccc5C4)O3)CC1)OC2=O` in this work. A Ki of 0.794 nM was found for `O=C1OC2(CCN(C3=NC(=O)C4(Cc5ccccc5C4)O3)CC2)c2cc(O)ccc21` in this work. A Ki of 3.16 nM was found for `Cc1cc2c(cn1)C1(CCN(C3=NC(=O)C4(Cc5ccccc5C4)O3)CC1)OC2` in this work. A Ki of 12.6 nM was found for `Cc1cc2c(cn1)C(=O)OC21CCN(C2=NC(=O)C3(Cc4ccccc4C3)O2)CC1` in this work. A Ki of 1 nM was found for `O=C1OC2(CCN(C3=NC(=O)C4(Cc5ccccc5C4)O3)CC2)c2ccccc21` in this work.
